Common to all, as to type: cell-based
The subject of data set [1] is HepG2 cells. The data set can be described thus: resazurin-based proliferation assay, HepG2. The procedure:
(§1) HepG2 or HEK293T cells were seeded in 96-well plates (4 × 10^4 cells per well). […] After 4, 14, and 24 h, the medium was aspirated, and the cells were incubated with 100 μM resazurin solution in Opti-MEM (prepared from a 0.15 mg/mL resazurin stock in DPBS) for 60 min. The metabolic activity was assessed by conversion of resazurin to resorufin, which was quantified by measuring absorbance at 570 nm and a reference wavelength of 600 nm. The cell count was calculated from a calibration curve with 0–10^5 cells per well in steps of 2 × 10^4.
(Alamar Blue is a resazurin reagent that responds to reducing activity.)

Data set [2] has as its system LXR/retinoid X receptor (RXR) heterodimer. In words: full-length LXR assay (LXR-responsive ABCA1 reporter, endogenous LXR) in HEK293T and HepG2 cells. As to conditions: vs 0.1% DMSO. The text has this:
Intrigued by the initial data on LXR modulation, we further investigated the mode-of-action of designs 1-3. As the Gal4 hybrid reporter gene assay is artificial and overexpresses LXR, we next examined LXR modulation by 1-3 in a full-length LXR assay (Figure a) based on the endogenous expression of the LXR/retinoid X receptor (RXR) heterodimer (Figure S2). Upon activation, LXR binds to response elements within the ATP-binding cassette transporter A1 (ABCA1, an LXR target gene) promoter of the reporter. […] The designs were next checked for antiproliferative effects that may compromise further in vitro characterization. […] Therefore, and due to the weak efficacy of 2, we focused further biological characterization on 1 and 3.
For the hybrid reporter gene assays, the previously reported Gal4-fusion receptor plasmids pFA-CMV-hRORα-LBD, pFA-CMV-hRORβ-LBD, pFA-CMV-hRORγ-LBD, pFA-CMV-hLXRα-LBD, pFA-CMV-hLXRβ-LBD, pFA-CMV-hFXR-LBD, pFA-CMV-hPXR-LBD, and pFA-CMV-hRXRα-LBD, coding for the hinge region, and LBD of the canonical isoform of the respective nuclear receptor were used. pFR-Luc (Stratagene) was used as the reporter plasmid, and pRL-SV40 (Promega) was used in all assays for the normalization of transfection efficiency and cell growth. pECE-SV40-Gal4-VP16 was a gift from Lea Sistonen (Addgene plasmid #71728). The LXR-responsive reporter ABCA1-pGL3 was used for the full-length reporter gene assay.
The day before transfection, HEK293T cells were seeded in 96-well plates (4 × 10^4 cells/well). Before transfection, the medium was changed to Opti-MEM without any supplements. […] Luminescence was measured with a Spark 10 M luminometer (Tecan Deutschland GmbH). […] EC50/IC50 values and the standard errors thereof were calculated with the mean fold activation values by OriginPro, Version 2025 (OriginLab Corporation, Northampton, MA, USA), fitting a dose–response curve with a variable Hill slope (Levenberg–Marquardt algorithm). […]

The test system of data set [3] is HEK293T cells. The data set can be described thus: resazurin-based proliferation assay, HEK293T. The procedure: as §1
Data set [4] concerns the target T1, LXRβ (Homo sapiens, UniProt P55055).
T1 construct: coding for the hinge region, and LBD of the canonical isoform of the respective nuclear receptor; expressed in transfected cells; host or cells: HEK293T
T1 sequence (P55055 222-460 limits assumed): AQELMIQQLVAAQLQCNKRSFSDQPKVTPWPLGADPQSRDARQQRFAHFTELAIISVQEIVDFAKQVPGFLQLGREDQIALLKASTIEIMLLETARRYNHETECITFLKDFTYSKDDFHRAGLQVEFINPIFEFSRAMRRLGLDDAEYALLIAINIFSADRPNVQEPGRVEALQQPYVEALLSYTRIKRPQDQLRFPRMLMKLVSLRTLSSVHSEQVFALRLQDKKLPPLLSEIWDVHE
The data set can be described thus: Gal4-LXRβ hybrid reporter gene assay. The procedure:
The LXR-responsive reporter ABCA1-pGL3 was used for the full-length reporter gene assay.
The day before transfection, HEK293T cells were seeded in 96-well plates (4 × 10^4 cells/well). Before transfection, the medium was changed to Opti-MEM without any supplements. Transient transfection was carried out using Lipofectamine LTX reagent (Invitrogen) according to the manufacturer’s protocol with (a) pFR-Luc (Stratagene), pRL-SV40 (Promega), and the corresponding Gal4-fusion nuclear receptor plasmid or (b) the LXR-responsive reporter ABCA1-pGL3 and pRL-SV40 (Promega). […] Each concentration was tested in duplicate, and each experiment was repeated in at least three biologically independent repeats. […] Luminescence was measured with a Spark 10 M luminometer (Tecan Deutschland GmbH). Normalization of transfection efficiency and cell growth was done by division of firefly luciferase data by renilla luciferase data multiplied by 1000, resulting in relative light units (RLU). Fold activation was obtained by dividing the mean RLU of the tested compound at a respective concentration by the mean RLU of the untreated 0.1% DMSO control. […] Separate control experiments to exclude nonspecific reporter gene activation or VP16-mediated effects were performed following the same procedure in the absence of a nuclear receptor expression plasmid (pFR-Luc, pRL-SV40, and pECE-SV40-Gal4-VP16 only).

“Also recorded” adds a separate entry of the source.

Broadly, the IC50 is the concentration that inhibits the measured activity by half.

On to `CCN(C(=O)c1ccccc1)c1ccc(C(O)(C(F)(F)F)C(F)(F)F)cc1` [Compound 1, N-Ethyl-N-(4-[1,1,1,3,3,3-hexafluoro-2-hydroxypropan-2-yl]phenyl)benzamide], for which the antiproliferative effect result in data set [1] (10 μM) and in data set [3] (10 μM) was “did not inhibit the proliferation” throughout. The “LXR modulation in LXR-responsive ABCA1 reporter gene assay” value in data set [2] (3 μM) is recorded as “partial LXR agonists; also recorded: partial LXR agonism”. In addition, the EC50 in data set [4] (classification agonist, read-out: LXRb pEC50/pIC50 (converted)) was 589 nM.
In the case of `CS(=O)(=O)c1cccc(-c2ccc(CN(Cc3cccc(C(F)(F)F)c3Cl)CC(c3ccccc3)c3ccccc3)cc2)c1` [Compound 3, N-(2-Chloro-3-[trifluoromethyl]benzyl)-N-([3′-{methylsulfonyl}-{1,1′-biphenyl}-4-yl]methyl)-2,2-diphenylethan-1-amine], the antiproliferative effect result in data set [1] (30 μM) and in data set [3] (30 μM) was “did not inhibit the proliferation” in each case. The “LXR modulation in LXR-responsive ABCA1 reporter gene assay” value in data set [2] (10 μM) is given as “robustly blocked LXR activation; also recorded: inverse agonist”. The midpoint of inhibition in data set [4], the IC50, lay at 2950 nM.

Source of the values: paper PMC12621175, “Scaffold Fusion and SAR Transfer with a Chemical Language Model Generates Novel Liver X Receptor Modulators” (Journal of Medicinal Chemistry, 2025).
